Measurements reported in patent US7547678B2, “Method for treating a disease, disorder or adverse effect caused by an elevated serum concentration of an UGT1A1 substrate” (Abbott Laboratories, priority 2008, dated 2009).
Several values for one entry are separate records, joined by “and”; a condition that tells them apart may be missing. Identical values can stand only once. Blank lines part the entries; values can stand above or below the compound they belong to.

Assays:
[1] = Ethinylestradiol pharmacokinetics alone and with ritonavir in healthy female volunteers; type: in vivo, human
Procedure: This was an open-label, single-center study in healthy female volunteers who had not received an oral contraceptive for a minimum of six months prior to study start. Subjects received the first dose of oral contraceptive containing 50 μg of ethinyl estradiol on Day 1. […] On Day 15, 300 mg q12h was administered, 400 mg q12h was given on Day 16, and 500 mg q12h was administered thereafter. […] Blood samples for ethinylestradiol concentrations were collected for 48 h after each of the oral contraceptive doses.
Twenty-seven subjects were enrolled in the study. […] Data from these four subjects were therefore excluded from summary statistics. The mean ±SD age of the 23 subjects who completed the study was 34±10 yrs (range 19 to 45 yrs), the mean ±SD weight was 67.3±10.9 kg (range 50.8 to 90.3 kg), and the mean ±SD height was 167±7 cm (range 155 to 180 cm).
Ethinylestradiol was supplied as Demulen@ 1/50-21 tablets (G.D. Searle & Co.) containing 50 μg of ethinylestradiol and 1 mg of ethynodiol diacetate and was administered at 8:00 a.m. on Day 1 and Day 29 with approximately 240 mL of water and within 15 minutes of a meal or snack.
Subjects were confined for 64 hours from Day-1 (day prior to the initial dose) through the first 48 hour blood collection (morning of Day 3) and for 64 hours from Day 28 through the second 48 hour blood collection (morning of Day 31). In addition, subjects came to the clinical testing unit as outpatients for meals, dosing and other study activities twice daily for a total of 14 consecutive days, starting on Day 15. Strenuous activity during confinement was not permitted. During confinement, subjects abstained from all food and beverages except for the scheduled meals and snacks provided in the study. Water was available ad libitum. All meals were standardized with regard to content during confinement. Breakfast, lunch, and dinner were served at approximately 7:30 a.m., 1:00 p.m. and 7:30 p.m. and snacks were provided at approximately 10:00 p.m., except on Days-1 and 28 when the snack was served at 9:45 p.m. An 8 hour fast was required prior to all blood collections for clinical laboratory analyses. The sequence of starting breakfast and dinner on each dosing day during confinement was maintained to the minute such that the time intervals relative to dosing were the same among all subjects.
Blood samples (7 mL) were collected for serum ethinyl estradiol concentrations at the following times relative to the dose on Day 1 and Day 29: prior to (0 h) and at 0.5, 1, 2, 3, 4, 6, 8, 10, 12, 18, 24, 30, 36, and 48 h post-dose. […] All plasma and serum samples were packed with dry ice and shipped to the analytical sites.
Serum samples were analyzed for ethinylestradiol concentrations at Pharmaco LSR, Richmond, Va.
Analysis of serum samples for determination of ethinyl estradiol was performed at Pharmaco LSR, Richmond, Va. Ethinylestradiol serum concentrations were determined using a gas chromatography/mass spectrometry (GC/MS) method. 17α-ethinylestradiol and its corresponding isotopically labeled internal standard were isolated from human serum by buffering the serum to pH 8.6 and then extracting with an ethyl ether/methylene chloride mixture. The organic layer was exchanged into aqueous base, washed with hexane and then acidified and extracted with methylene chloride. […] This method has been validated over 17α-ethinylestradiol concentrations ranging from 2.00 to 256 pg/mL for a 1.0 mL serum volume, with a minimum quantitation limit of 2.00 pg/mL. […]

[2] = tested on: UDP-glucuronosyltransferase 1A (UGT 1A); test: Affymetrix Rat U34 microarray of liver RNA after oral ritonavir; type: in vivo, Sprague-Dawley rats
UGT1A1 = test: Hepatic 17α-ethinylestradiol glucuronidation activity in liver microsomes of treated rats; conditions: both male and female rats
[3] = tested on: bilirubin-conjugating activity; conditions: indinavir treatment; cited from earlier work
UGT1A1 isoform = target: T1, UGT1A1 isoform (Homo sapiens, UniProt P22309); conditions: human cells transfected with the UGT1A1 isoform; cited from earlier work
T1 sequence (P22309 26-533): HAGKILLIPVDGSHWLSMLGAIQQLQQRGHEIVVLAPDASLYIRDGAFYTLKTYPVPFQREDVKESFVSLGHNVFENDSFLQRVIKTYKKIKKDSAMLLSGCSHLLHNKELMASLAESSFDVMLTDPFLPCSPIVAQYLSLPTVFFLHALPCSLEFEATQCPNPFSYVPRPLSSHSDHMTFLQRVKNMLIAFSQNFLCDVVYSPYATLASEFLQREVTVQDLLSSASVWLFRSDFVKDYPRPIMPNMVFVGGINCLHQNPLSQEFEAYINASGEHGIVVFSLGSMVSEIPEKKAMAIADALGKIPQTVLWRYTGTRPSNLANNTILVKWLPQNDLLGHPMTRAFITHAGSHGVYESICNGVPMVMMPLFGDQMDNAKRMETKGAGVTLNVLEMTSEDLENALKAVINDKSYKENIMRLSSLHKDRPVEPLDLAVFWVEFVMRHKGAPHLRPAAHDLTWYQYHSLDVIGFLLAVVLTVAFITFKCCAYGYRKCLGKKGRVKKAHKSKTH

[4] = tested on: bilirubin conjugation in human microsomes; conditions: in vitro system of human microsomes; cited from earlier work
[5] = one study, subjects taking atazanavir; cited from earlier work
[6] = Mean ± SD, n = 23, single 50 μg ethinylestradiol dose, alone (Day 1) or on Day 29 during ritonavir 500 mg q12h, serum
[7] = 1-Day Studies, 20 mg/kg oral, liver RNA, 20 mg/kg
[8] = 1-Day Studies, 50 mg/kg oral, liver RNA, 50 mg/kg
[9] = 3-Day Studies, 50 mg/kg oral daily, liver RNA, 50 mg/kg

Ethinylestradiol AUC∞ [1, 6]: 1.67 ± 0.377 ng·h/mL
Ethinylestradiol Cmax [1, 6]: 0.104 ± 0.024 ng/mL
Ethinylestradiol Tmax [1, 6]: 4.0 ± 1.7 h
Ethinylestradiol β (terminal elimination rate constant) [1, 6]: 0.0407 ± 0.0082 h⁻¹
time at which serum ethinylestradiol concentrations peaked post-dose ([1]; single dose of oral contraceptive alone): approximately 4 h
SMILES: C#C[C@]1(O)CC[C@H]2[C@@H]3CCc4cc(O)ccc4[C@H]3CC[C@@]21C [Ethinylestradiol, 17α-ethinylestradiol]

UGT1A levels for all probe sets ([2]; dose levels of 100 mg/kg and higher, after 1 and 3 days of treatment): consistent increase
SMILES: CC(C)c1nc(CN(C)C(=O)N[C@H](C(=O)N[C@@H](Cc2ccccc2)C[C@H](O)[C@H](Cc2ccccc2)NC(=O)OCc2cncs2)C(C)C)cs1 [ritonavir, Ritonavir]
Fold change, UDP-glucuronosyltransferase 1 family, member 1 (1st probe sequence) ([2]; 1-Day Studies, 20 mg/kg oral, liver RNA): 1.63
Fold change, 3-methylcholanthrene-inducible UDP-glucuronosyltransferase [2, 7]: 1.83 and 1.54
Fold change, UDP-glucuronosyltransferase 1 family, member 1 (2nd probe sequence) [2, 7]: 1.68 and 1.51
Fold change, UDP-glucuronosyltransferase 1 family, member 1 (3rd probe sequence) [2, 7]: 1.8 and 1.52
Fold change, UDP glucuronosyltransferase, exon 1. ([2]; 1-Day Studies, 50 mg/kg oral, liver RNA): 2.43
Fold change, 3-methylcholanthrene-inducible UDP-glucuronosyltransferase [2, 8]: 1.63 and 2.1
Fold change, UDP-glucuronosyltransferase 1 family, member 1 (1st probe sequence) [2, 8]: 1.68 and 1.63
Fold change, UDP-glucuronosyltransferase 1 family, member 1 (2nd probe sequence) [2, 8]: 2.12 and 2.05
Fold change, UDP-glucuronosyltransferase 1 family, member 1 (3rd probe sequence) [2, 8]: 1.75 and 2.12
Fold change, 3-methylcholanthrene-inducible UDP-glucuronosyltransferase [2, 9]: 1.54 and 1.85
Fold change, UDP-glucuronosyltransferase 1 family, member 1 (3rd probe sequence) [2, 9]: 1.31 and 1.33
glucuronidation of 17α-ethinylestradiol, a UGT1A1 substrate (result in words) (UGT1A1): significantly increase

SMILES: CC(C)(C)NC(=O)[C@@H]1CN(Cc2cccnc2)CCN1C[C@@H](O)C[C@@H](Cc1ccccc1)C(=O)N[C@H]1c2ccccc2C[C@H]1O [Indinavir]
cause of elevations in serum-unconjugated bilirubin (result in words) [3]: direct inhibition of bilirubin-conjugating activity

SMILES: COC(=O)N[C@H](C(=O)N[C@@H](Cc1ccccc1)[C@@H](O)CN(Cc1ccc(-c2ccccn2)cc1)NC(=O)[C@@H](NC(=O)OC)C(C)(C)C)C(C)(C)C [Atazanavir]
inhibition of bilirubin conjugation (result in words) (UGT1A1 isoform): inhibits bilirubin conjugation in the micromolar range
inhibition of bilirubin conjugation (result in words) [4]: inhibits bilirubin conjugation in the micromolar range
subjects exhibiting unconjugated hyperbilirubinemia [5]: 57%
